Converted amounts (≈) assume the structure as drawn. Like-named read-outs stand apart in the source and are kept apart here.
How the values were obtained:
[1] = tested on: M. tuberculosis transformed with luxABCDE; assay: microbe, parasite or virus in culture; format: cell-based, Mycobacterium tuberculosis
[2] = tested on: non-replicating cultures of M. tuberculosis H37Rv transformed with lux ABCDE; assay: microbe, parasite or virus in culture; format: cell-based, Mycobacterium tuberculosis; settings: for MIC90: ≥90% reduction in luminescence, read-out: MIC90 LORA; for MIC90 LORA/MABA: ratio of LORA MIC90 to MABA MIC90
[3] = Mycobacterium tuberculosis, H37RV

Row | SMILES | MIC90 [2, 3] | MIC90 LORA Rel to RMP [2] | MIC90 LORA/MABA [2] | also measured
1 | COc1nc2ccc(Br)cc2cc1[C@@H](c1ccccc1)[C@@](O)(CCN(C)C)c1cccc2ccccc12 [Bedaquiline] | – | – | – | MIC90 ([1]; Mycobacterium tuberculosis, 168 h, day 7 of time-kill study): 0.031 µM (≈ 0.0172 µg/mL); MBC ([1]; Mycobacterium tuberculosis, 168 h, day 7 of time-kill study, read-out: MBC99): 0.124 µM (≈ 0.0689 µg/mL)
2 | CO[C@H]1/C=C/O[C@@]2(C)Oc3c(C)c(O)c4c(=O)c(c5oc6cccc(OCc7ccc(CN8CCN(C(=O)CN9CCOCC9)CC8)cc7)c6nc-5c4c3C2=O)NC(=O)/C(C)=C\C=C\[C@H](C)[C@H](O)[C@@H](C)[C@@H](O)[C@@H](C)[C@H](OC(C)=O)[C@@H]1C [Compound 16c, (7S,9E,11S,12R,13S,14R,15R,16R,17S,18S,19E,21Z)-2,15,17-Trihydroxy-11-methoxy-3,7,12,14,16,18,22-heptamethyl-32-{[4-({4-[2-(morpholin-4-yl)acetyl]piperazin-1-yl}methyl)phenyl]methoxy}-6,23,37-trioxo-8,27,38-trioxa-24,34-diazahexacyclo[23.11.1.1^4,7.0^5,36.0^26,35.0^28,33]octatriaconta-1(36)2,4,9,19,21,25,28,30,32,34-undecaen-13-yl acetate] | – | – | – | MBC99 Day 7 (Lux Assay) MBC Rel to RMP [1]: 0.08; MBC ([1]; Mycobacterium tuberculosis, 168 h, […], ≥99% reduction in luminescence, read-out: MBC99 Day 7 (Lux Assay) MBC): 0.061 µM
3 | CO[C@H]1/C=C/O[C@@]2(C)Oc3c(C)c(O)c4c(=O)c(c5oc6cc(N7CCN(CC(C)C)CC7)cc(OCc7ccc(CN8CCN(C(=O)CN9CCOCC9)CC8)cc7)c6nc-5c4c3C2=O)NC(=O)/C(C)=C\C=C\[C@H](C)[C@H](O)[C@@H](C)[C@@H](O)[C@@H](C)[C@H](OC(C)=O)[C@@H]1C [Compound 17d, (7S,9E,11S,12R,13S,14R,15R,16R,17S,18S,19E,21Z)-2,15,17-Trihydroxy-11-methoxy-3,7,12,14,16,18,22-heptamethyl-30-[4-(2-methylpropyl)piperazin-1-yl]-32-{[4-({4-[2-(morpholin-4-yl)acetyl]piperazin-1-yl}methyl)phenyl]methoxy}-6,23,37-trioxo-8,27,38-trioxa-24,34-diazahexacyclo[23.11.1.1^4,7.0^5,36.0^26,35.0^28,33]octatriaconta-1(36)2,4,9,19,21,25,28,30,32,34-undecaen-13-yl acetate] | < 0.016 µM | – | – | –
4 | CO[C@H]1/C=C/O[C@@]2(C)Oc3c(C)c(O)c4c(=O)c(c5oc6cc(N7CCN(C(=O)c8cccc(-n9ccnc9)c8)CC7)cc(C)c6nc-5c4c3C2=O)NC(=O)/C(C)=C\C=C\[C@H](C)[C@H](O)[C@@H](C)[C@@H](O)[C@@H](C)[C@H](OC(C)=O)[C@@H]1C [Compound 29a, (7S,9E,11S,12R,13S,14R,15R,16R,17S,18S,19E,21Z)-2,15,17-Trihydroxy-30-{4-[3-(1H-imidazol-1-yl)benzoyl]piperazin-1-yl}-11-methoxy-3,7,12,14,16,18,22,32-octamethyl-6,23,37-trioxo-8,27,38-trioxa-24,34-diazahexacyclo[23.11.1.1^4,7.0^5,36.0^26,35.0^28,33]octatriaconta-1(36)2,4,9,19,21,25,28,30,32,34-undecaen-13-yl acetate] | 0.126 µM | 0.61 | 3.5 | –
5 | CO[C@H]1/C=C/O[C@@]2(C)Oc3c(C)c(O)c4c(=O)c(c5oc6cc(N7CCN(CCCO[C@@H]8COc9nc([N+](=O)[O-])cn9C8)CC7)cc(C)c6nc-5c4c3C2=O)NC(=O)/C(C)=C\C=C\[C@H](C)[C@H](O)[C@@H](C)[C@@H](O)[C@@H](C)[C@H](OC(C)=O)[C@@H]1C [Compound 29d, (7S,9E,11S,12R,13S,14R,15R,16R,17S,18S,19E,21Z)-2,15,17-Trihydroxy-11-methoxy-3,7,12,14,16,18,22,32-octamethyl-30-[4-(3-{[(6S)-2-nitro-5H,6H,7H-imidazo[2,1-b][1,3]oxazin-6-yl]oxy}propyl)piperazin-1-yl]-6,23,37-trioxo-8,27,38-trioxa-24,34-diazahexacyclo[23.11.1.1^4,7.0^5,36.0^26,35.0^28,33]octatriaconta-1(36)2,4,9,19,21,25,28,30,32,34-undecaen-13-yl acetate] | 0.053 µM | 0.20 | 1.4 | –
6 | CO[C@H]1/C=C/O[C@@]2(C)Oc3c(C)c(O)c4c(=O)c(c5oc6cc(C)cc(N7CCN(C)CC7)c6nc-5c4c3C2=O)NC(=O)/C(C)=C\C=C\[C@H](C)[C@H](O)[C@@H](C)[C@@H](O)[C@@H](C)[C@H](OC(C)=O)[C@@H]1C [Compound 30a, (7S,9E,11S,12R,13S,14R,15R,16R,17S,18S,19E,21Z)-2,15,17-Trihydroxy-11-methoxy-3,7,12,14,16,18,22,30-octamethyl-32-(4-methylpiperazin-1-yl)-6,23,37-trioxo-8,27,38-trioxa-24,34-diazahexacyclo[23.11.1.1^4,7.0^5,36.0^26,35.0^28,33]octatriaconta-1(36)2,4,9,19,21,25,28,30,32,34-undecaen-13-yl acetate] | – | <0.06 | – | MIC90 [2]: <0.016 µM
7 | CO[C@H]1/C=C/O[C@@]2(C)Oc3c(C)c(O)c4c(=O)c(c5oc6cc(C=O)cc(N7CCN(C)CC7)c6nc-5c4c3C2=O)NC(=O)/C(C)=C\C=C\[C@H](C)[C@H](O)[C@@H](C)[C@@H](O)[C@@H](C)[C@H](OC(C)=O)[C@@H]1C [Compound 30b, (7S,9E,11S,12R,13S,14R,15R,16R,17S,18S,19E,21Z)-30-Formyl-2,15,17-trihydroxy-11-methoxy-3,7,12,14,16,18,22-heptamethyl-32-(4-methylpiperazin-1-yl)-6,23,37-trioxo-8,27,38-trioxa-24,34-diazahexacyclo[23.11.1.1^4,7.0^5,36.0^26,35.0^28,33]octatriaconta-1(36)2,4,9,19,21,25,28,30,32,34-undecaen-13-yl acetate] | – | 0.44 | 3.1 | MIC90 [2]: 0.114 µM
8 | CO[C@H]1/C=C/O[C@@]2(C)Oc3c(C)c(O)c4c(=O)c(c5oc6cc(C)cc(N7CCN(CC(C)C)CC7)c6nc-5c4c3C2=O)NC(=O)/C(C)=C\C=C\[C@H](C)[C@H](O)[C@@H](C)[C@@H](O)[C@@H](C)[C@H](OC(C)=O)[C@@H]1C [Compound 30c, (7S,9E,11S,12R,13S,14R,15R,16R,17S,18S,19E,21Z)-2,15,17-Trihydroxy-11-methoxy-3,7,12,14,16,18,22,30-octamethyl-32-[4-(2-methylpropyl)piperazin-1-yl]-6,23,37-trioxo-8,27,38-trioxa-24,34-diazahexacyclo[23.11.1.1^4,7.0^5,36.0^26,35.0^28,33]octatriaconta-1(36)2,4,9,19,21,25,28,30,32,34-undecaen-13-yl acetate] | < 0.016 µM | <0.06 | – | –
9 | CO[C@H]1/C=C/O[C@@]2(C)Oc3c(C)c(O)c4c(=O)c(c5oc6cc(C=O)cc(N7CCN(CC(C)C)CC7)c6nc-5c4c3C2=O)NC(=O)/C(C)=C\C=C\[C@H](C)[C@H](O)[C@@H](C)[C@@H](O)[C@@H](C)[C@H](OC(C)=O)[C@@H]1C [Compound 30d, (7S,9E,11S,12R,13S,14R,15R,16R,17S,1S,19E,21Z)-30-Formyl-2,15,17-trihydroxy-11-methoxy-3,7,12,14,16,18,22-heptamethyl-32-[4-(2-methylpropyl)piperazin-1-yl]-6,23,37-trioxo-8,27,38-trioxa-24,34-diazahexacyclo[23.11.1.1^4,7.0^5,36.0^26,35.0^28,33]octatriaconta-1(36)2,4,9,19,21,25,28,30,32,34-undecaen-13-yl acetate] | – | 0.07 | – | MIC90 [2]: 0.017 µM
10 | CO[C@H]1/C=C/O[C@@]2(C)Oc3c(C)c(O)c4c(=O)c(c5oc6cc(C)cc(N7CCN(C(=O)c8cccc(-c9ccccn9)c8)CC7)c6nc-5c4c3C2=O)NC(=O)/C(C)=C\C=C\[C@H](C)[C@H](O)[C@@H](C)[C@@H](O)[C@@H](C)[C@H](OC(C)=O)[C@@H]1C [Compound 30g, (7S,9E,11S,12R,13S,14R,15R,16R,17S,18S,19E,21Z)-2,15,17-Trihydroxy-11-methoxy-3,7,12,14,16,18,22,30-octamethyl-6,23,37-trioxo-32-{4-[3-(pyridin-2-yl)benzoyl]piperazin-1-yl}-8,27,38-trioxa-24,34-diazahexacyclo[23.11.1.1^4,7.0^5,36.0^26,35.0^28,33]octatriaconta-1(36)2,4,9,19,21,25,28,30,32,34-undecaen-13-yl acetate] | 0.032 µM | 0.16 | 1.2 | –
11 | CO[C@H]1/C=C/O[C@@]2(C)Oc3c(C)c(O)c4c(=O)c(c5oc6cc(C)cc(N7CCN(C(=O)c8ccc9occc9c8)CC7)c6nc-5c4c3C2=O)NC(=O)/C(C)=C\C=C\[C@H](C)[C@H](O)[C@@H](C)[C@@H](O)[C@@H](C)[C@H](OC(C)=O)[C@@H]1C [Compound 30h, (7S,9E,11S,12R,13S,14R,15R,16R,17S,18S,19E,21Z)-32-[4-(1-Benzofuran-5-carbonyl)piperazin-1-yl]-2,15,17-trihydroxy-11-methoxy-3,7,12,14,16,18,22,30-octamethyl-6,23,37-trioxo-8,27,38-trioxa-24,34-diazahexacyclo[23.11.1.1^4,7.0^5,36.0^26,35.0^28,33]octatriaconta-1(36)2,4,9,19,21,25,28,30,32,34-undecaen-13-yl acetate] | 0.042 µM | 0.20 | 2.2 | –
12 | CO[C@H]1/C=C/O[C@@]2(C)Oc3c(C)c(O)c4c(=O)c(c5oc6cc(C=Nc7ccc(N8CCOCC8)cc7)cc(N7CCN(C)CC7)c6nc-5c4c3C2=O)NC(=O)/C(C)=C\C=C\[C@H](C)[C@H](O)[C@@H](C)[C@@H](O)[C@@H](C)[C@H](OC(C)=O)[C@@H]1C [Compound 32, (7S,9E,11S,12R,13S,14R,15R,16R,17S,18S,19E,21Z)-2,15,17-trihydroxy-11-methoxy-3,7,12,14,16,18,22-heptamethyl-32-(4-methylpiperazin-1-yl)-30-{N-[4-(morpholin-4-yl)phenyl]carboximidoyl}-6,23,37-trioxo-8,27,38-trioxa-24,34-diazahexacyclo[23.11.1.1^4,7.0^5,36.0^26,35.0^28,33]octatriaconta-1,3,5(36)9,19,21,25,28,30,32,34-undecaen-13-yl acetate] | 0.118 µM | 0.45 | 2.5 | –
